The subject of assay [1] is HEK293sieSTAT3(wt). As to the kind of experiment: drug sensitivity score (DSS), cytotoxicity CellTox Green (DSS (dimensionless)); higher = more cytotoxic; extreme values may be limits of the assay. Conditions: 72 h; STAT3 variant: wild type. Put shortly:
(§1)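 HEK293 cells with a STAT3-dependent luciferase reporter, overexpressing either wild-type or mutant STAT3, were dispensed (20 μl at 100,000 cells/ml) into 384-well plates holding compounds acoustically pre-plated at 5 concentrations in 10-fold dilutions. The plates were kept for 72 hours at 37°C and 5% CO2, then CellTox Green fluorescence (485/520 nm) followed by CellTiter-Glo luminescence was read on a PHERAstar FS. Breeze was used to compute a drug sensitivity score from the dose-response curve area after normalisation to negative and positive control wells, and each value comes from one representative of two experiments.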

Assay [2] relates to HEK293sieSTAT3(Y640F). Described as above. Conditions: 72 h; STAT3 variant: Y640F (constitutively active). Put shortly: as §1
In assay [3] the test system is HEK293sieSTAT3(wt). As to the kind of experiment: drug sensitivity score (DSS), viability CellTiter-Glo (DSS (dimensionless)); higher = more growth inhibition; extreme values may be limits of the assay. The settings on record: 72 h; STAT3 variant: wild type. Put shortly:
as §1
For orientation: Cellular ATP, detected with luciferase, serves as a proxy for viable cell number.

For assay [4], the system named is HEK293sieSTAT3(Y640F). The description is as above. Conditions: 72 h; STAT3 variant: Y640F (constitutively active). Put shortly: as §1

We go through 22 compounds from the supplement of paper PMC7108870.

SMILES strings stand for the structures.

In the case of `Nc1cccc2c1CN(C1CCC(=O)NC1=O)C2=O` (stereo not drawn) [Lenalidomide] (top concentration tested 100000 nM), the drug sensitivity score in assay [1] was 0; in assay [2], 0; in assay [3], 2.72; in assay [4] it was 2.66.

Take `COc1cc2nccc(Oc3ccc(NC(=O)NC4CC4)c(Cl)c3)c2cc1C(N)=O` [Lenvatinib] (top concentration tested 2500 nM): the drug sensitivity score was 0 in assay [1], 0 in assay [2], 2.2 in assay [3] and 2.04 in assay [4].

For the compound `C[C@]12O[C@H](C[C@]1(O)CO)n1c3ccccc3c3c4c(c5c6ccccc6n2c5c31)CNC4=O` [Lestaurtinib] (top concentration tested 1000 nM), the drug sensitivity score in assay [1] came to 4.55; in assay [2] it was 7.22; in assay [3], 8.27; in assay [4], 9.27.

As for `N#Cc1ccc(C(c2ccc(C#N)cc2)n2cncn2)cc1` [Letrozole] (top concentration tested 10000 nM), the drug sensitivity score in assay [1] was 0.02; in assay [2], 0; in assay [3] it was 0.66; in assay [4], 4.14.

For the compound `c1ccc([C@H]2CN3CCSC3=N2)cc1` [Levamisole] (top concentration tested 10000 nM), the drug sensitivity score in assay [1], in assay [2], in assay [3] and in assay [4] was 0 in each case.

On to `Cc1ccc(F)c(NC(=O)Nc2ccc(-c3cccc4[nH]nc(N)c34)cc2)c1` [Linifanib] (top concentration tested 1000 nM), for which the drug sensitivity score in assay [1], in assay [2], in assay [3] and in assay [4] was 0 each time.

As for `C[C@]1(O)C[C@@H](c2nc(-c3ccc4ccc(-c5ccccc5)nc4c3)c3c(N)nccn32)C1` [Linsitinib] (top concentration tested 10000 nM), the drug sensitivity score in assay [1] came to 0; in assay [2] it was 0; in assay [3], 2.31; in assay [4], 5.71.

Take `Nc1nc(OCc2cc(Br)cs2)c2[nH]cnc2n1` [Lomeguatrib] (top concentration tested 10000 nM): the drug sensitivity score was 0.01 in assay [1], 0 in assay [2], 0.39 in assay [3] and 2.48 in assay [4].

`O=NN(CCCl)C(=O)NC1CCCCC1` [Lomustine] (top concentration tested 10000 nM): the drug sensitivity score in assay [1], in assay [2], in assay [3] and in assay [4] was 0 each time.

For the compound `NC(=O)N1CCC(CC(=O)N2CCC([C@H]3c4ncc(Br)cc4CCc4cc(Cl)cc(Br)c43)CC2)CC1` [Lonafarnib] (top concentration tested 10000 nM), the drug sensitivity score in assay [1] was found to be 1.31; in assay [2] it was 0.03; in assay [3] it was 8.7; in assay [4], 6.11.

In the case of `Cc1c(F)cc(C(=O)NC2CC2)cc1-c1ccc(C(=O)NCC(C)(C)C)cn1` [Losmapimod] (top concentration tested 10000 nM), the drug sensitivity score in assay [1] stood at 0; in assay [2], 0; in assay [3] it was 0; in assay [4], 0.91.

`CC[C@H](C)C(=O)O[C@H]1C[C@@H](C)C=C2C=C[C@H](C)[C@H](CC[C@@H]3C[C@@H](O)CC(=O)O3)[C@H]21` [Lovastatin] (top concentration tested 10000 nM): the drug sensitivity score in assay [1] came to 0; in assay [2] it was 0; in assay [3], 0.12; in assay [4], 0.

For the compound `CNC(=O)c1cccc2cc(Oc3ccnc4cc(OCC5(N)CC5)c(OC)cc34)ccc12` [Lucitanib] (top concentration tested 10000 nM), the drug sensitivity score turned out to be 7.65 in assay [1], 0 in assay [2], 5.26 in assay [3] and 1.79 in assay [4].

In the case of `CCNC(=O)c1noc(-c2cc(C(C)C)c(O)cc2O)c1-c1ccc(CN2CCOCC2)cc1` [Luminespib] (top concentration tested 1000 nM), the drug sensitivity score in assay [1] was determined as 15.9; in assay [2] it was 7.6; in assay [3], 27.8; in assay [4], 23.7.

As for `C=CCn1c(=O)c2cnc(Nc3ccc(N4CCN(C)CC4)cc3)nc2n1-c1cccc(C(C)(C)O)n1` [MK1775] (top concentration tested 10000 nM), the drug sensitivity score in assay [1] came to 16.5; in assay [2] it was 10.6; in assay [3] it was 19.4; in assay [4] it was 20.4.

As for `O=C(O)CC[C@H]1CC[C@@](c2cc(F)ccc2F)(S(=O)(=O)c2ccc(Cl)cc2)CC1` [MK-0752] (top concentration tested 1000 nM), the drug sensitivity score in assay [1] turned out to be 0; in assay [2], 0; in assay [3] it was 0; in assay [4] it was 1.59.

Take `NC1(c2ccc(-c3nc4ccn5c(=O)[nH]nc5c4cc3-c3ccccc3)cc2)CCC1` [MK-2206] (top concentration tested 1000 nM): the drug sensitivity score came to 0 in assay [1], 0 in assay [2], 8.2 in assay [3] and 3.71 in assay [4].

On to `CN(C[C@@H]1COCCO1)S(=O)(=O)Nc1ccc2ccc3ncc(-c4cnn(C)c4)cc3c(=O)c2c1` [MK-2461] (top concentration tested 10000 nM), for which the drug sensitivity score in assay [1] is 0; in assay [2] it was 0; in assay [3] it was 3.5; in assay [4], 3.63.

In the case of `O=C(c1cccc(Cl)c1F)N1CCN(Cc2cccc(Nc3nccs3)n2)CC1` [MK-8745] (top concentration tested 2500 nM), the drug sensitivity score in assay [1] is 1.16; in assay [2], 0; in assay [3], 3.99; in assay [4], 0.11.

In the case of `Cn1cc(-c2cnn3c(N)c(Br)c([C@@H]4CCCNC4)nc23)cn1` [MK-8776] (top concentration tested 2500 nM), the drug sensitivity score in assay [1] was determined as 3.43; in assay [2] it was 1.03; in assay [3], 6.83; in assay [4], 5.89.

Regarding `Cc1cnc(-c2ccccc2C(C)C)nc1NCc1ccc(-n2ccnn2)cc1` [ML323] (top concentration tested 10000 nM), the drug sensitivity score in assay [1] turned out to be 0; in assay [2], 0; in assay [3] it was 1.14; in assay [4] it was 2.43.

Turning to `CC(C)n1nc(-c2ccc3oc(N)nc3c2)c2c(N)ncnc21` [MLN-0128] (top concentration tested 1000 nM), the drug sensitivity score in assay [1] was 1.73; in assay [2] it was 0; in assay [3] it was 18.7; in assay [4], 15.
